In publication PMC11149917, “Translational and Therapeutic Evaluation of RAS-GTP Inhibition by RMC-6236 in RAS-Driven Cancers” (Cancer Discovery, 2024):
Where two headings read alike, the source gives them in different places.

Assay: Mouse blood and tissue PK (LC/MS-MS)
Type: in vivo
Conditions: mouse, tumor, oral
Experimental: For single-dose PKPD study, mice were randomized and assigned into groups (n = 3/dose/time point). […] Blood and tissues, including the tumor, brain, colon, ear skin, and muscle, were harvested at indicated time points. […] The whole blood, tumor, brain, colon, and ear skin concentrations of RMC-6236 were determined using liquid chromatography–tandem mass spectrometry (LC/MS-MS) methods. […] After thorough mixing and centrifugation, the supernatant was diluted with water or directly analyzed on a Sciex 5500 or Sciex 6500+ triple quadrupole mass spectrometer equipped with an ACQUITY or Shimadzu UPLC system. […] Bioanalysis on blood and tissue samples from xenograft models was run at Pharmaron and Wuxi AppTec. Concentrations reported as below the quantification limit were treated as zero for PK analysis. PK parameters were calculated by noncompartmental analysis of the concentration–time profiles using Phoenix WinNonLin (version 8.3 Certara). Apparent terminal elimination half-life (t1/2) values were calculated as ln(2)/k, where k represents the terminal elimination rate constant. Area under the concentration–time curve (AUC) values were estimated using a linear trapezoidal method. AUClast values were calculated from the dosing time to the last quantifiable concentration. Maximum concentration (Cmax) was recorded as observed.

CCn1c(-c2cc(N3CCN(C)CC3)cnc2[C@H](C)OC)c2c3cc(ccc31)-c1csc(n1)C[C@H](NC(=O)[C@H]1C[C@@H]1C)C(=O)N1CCC[C@H](N1)C(=O)OCC(C)(C)C2 [RMC-6236]
concentration at 4 h (25 mg/kg, HPAC #4, 25 mg/kg, individual animals, read-out: RMC-6236 (nM) Tumor): 4090 nM
concentration at 8 h (25 mg/kg, HPAC #4, 25 mg/kg, 8h, individual animals, read-out: RMC-6236 (nM) Tumor): 4080 nM
concentration at 24 h (25 mg/kg, HPAC #4, 25 mg/kg, 24h, individual animals, read-out: RMC-6236 (nM) Tumor): 1260 nM
concentration at 8 h (25 mg/kg, KP-4, study KP-4 #3, 25 mg/kg, 8h, read-out: RMC-6236 (nM) Tumor): 3260 nM
concentration at 24 h (25 mg/kg, KP-4, study KP-4 #3, 25 mg/kg, 24h, read-out: RMC-6236 (nM) Tumor): 758 nM
concentration at 8 h (25 mg/kg, KP-4, study KP-4 #4, 25 mg/kg, 8h, read-out: RMC-6236 (nM) Tumor): 3030 nM
concentration at 24 h (25 mg/kg, KP-4, study KP-4 #4, 25 mg/kg, 24h, read-out: RMC-6236 (nM) Tumor): 840 nM
concentration at 48 h (25 mg/kg, KP-4, study KP-4 #4, 25 mg/kg, 48h, read-out: RMC-6236 (nM) Tumor): 312 nM
concentration at 4 h (25 mg/kg, KP-4, study KP-4 #5, 25 mg/kg, read-out: RMC-6236 (nM) Tumor): 2460 nM
concentration at 24 h (25 mg/kg, KP-4, study KP-4 #5, 25 mg/kg, 24h, read-out: RMC-6236 (nM) Tumor): 859 nM
concentration at 48 h (25 mg/kg, KP-4, study KP-4 #5, 25 mg/kg, 48h, read-out: RMC-6236 (nM) Tumor): 281 nM
concentration at 8 h (25 mg/kg, KP-4, study KP-4 #6, 25 mg/kg, 8h, read-out: RMC-6236 (nM) Tumor): 4160 nM
concentration at 24 h (25 mg/kg, KP-4, study KP-4 #6, 25 mg/kg, 24h, read-out: RMC-6236 (nM) Tumor): 1500 nM
concentration at 48 h (25 mg/kg, KP-4, study KP-4 #6, 25 mg/kg, 48h, read-out: RMC-6236 (nM) Tumor): 739 nM
concentration at 1 h (25 mg/kg, Model Development Dataset, 25mg/kg_study8, read-out: Tumor Concentration): 457 nM
concentration at 2 h (25 mg/kg, Model Development Dataset, 25mg/kg_study8, 2 h, read-out: Tumor Concentration): 1530 nM
concentration at 8 h (25 mg/kg, Model Development Dataset, 25mg/kg_study8, 8 h, read-out: Tumor Concentration): 2320 nM
concentration at 24 h (25 mg/kg, Model Development Dataset, 25mg/kg_study8, 24 h, read-out: Tumor Concentration): 995 nM
concentration at 240 h (25 mg/kg, Model Development Dataset, 25mg/kg_study8r (doses every 24 h, 0-[…]), read-out: Tumor Concentration): 410 nM
concentration at 1 h (25 mg/kg, Model Validation Dataset, 25mg/kg_study6, read-out: Tumor Concentration): 358 nM
concentration at 8 h (25 mg/kg, Model Validation Dataset, 25mg/kg_study6, 8 h, read-out: Tumor Concentration): 2570 nM
concentration at 24 h (25 mg/kg, Model Validation Dataset, 25mg/kg_study6, 24 h, read-out: Tumor Concentration): 890 nM
concentration at 48 h (25 mg/kg, Model Validation Dataset, 25mg/kg_study6, 48 h, read-out: Tumor Concentration): 690 nM
concentration at 72 h (25 mg/kg, Model Validation Dataset, 25mg/kg_study6, 72 h): 433 nM
concentration at 8 h (25 mg/kg, NCI-H441 xenograft tumor, study NCI-H441#6, 25 mg/kg, 8h, read-out: RMC-6236 (nM) Tumor): 2380 nM
concentration at 24 h (25 mg/kg, NCI-H441 xenograft tumor, study NCI-H441#6, 25 mg/kg, 24h, read-out: RMC-6236 (nM) Tumor): 989 nM
concentration at 48 h (25 mg/kg, NCI-H441 xenograft tumor, study NCI-H441#6, 25 mg/kg, 48h, read-out: RMC-6236 (nM) Tumor): 641 nM
concentration at 8 h (25 mg/kg, NCI-H441 xenograft tumor, study NCI-H441#8, 25 mg/kg, 8h, read-out: RMC-6236 (nM) Tumor): 2740 nM
concentration at 24 h (25 mg/kg, NCI-H441 xenograft tumor, study NCI-H441#8, 25 mg/kg, 24h, read-out: RMC-6236 (nM) Tumor): 1080 nM
concentration at 4 h (25 mg/kg, sheet colon, KP-4, KP-4 #5, 25 mg/kg, read-out: RMC-6236 (nM) Tumor): 5860 nM
concentration at 24 h (40 mg/kg, KP-4, study KP-4 #4, 40 mg/kg, 24h, read-out: RMC-6236 (nM) Tumor): 1620 nM
concentration at 48 h (40 mg/kg, KP-4, study KP-4 #4, 40 mg/kg, 48h, read-out: RMC-6236 (nM) Tumor): 661 nM
concentration at 1 h (40 mg/kg, Model Development Dataset, 40mg/kg_study8, read-out: Tumor Concentration): 947 nM
concentration at 2 h (40 mg/kg, Model Development Dataset, 40mg/kg_study8, 2 h, read-out: Tumor Concentration): 3090 nM
concentration at 8 h (40 mg/kg, Model Development Dataset, 40mg/kg_study8, 8 h, read-out: Tumor Concentration): 3380 nM
concentration at 24 h (40 mg/kg, Model Development Dataset, 40mg/kg_study8, 24 h, read-out: Tumor Concentration): 1810 nM
concentration at 240 h (40 mg/kg, Model Development Dataset, 40mg/kg_study8r (doses every 24 h, 0-[…]), read-out: Tumor Concentration): 876 nM
concentration at 2 h (40 mg/kg, NCI-H441 xenograft tumor, study NCI-H441#8, 40 mg/kg, 2h, read-out: RMC-6236 (nM) Tumor): 3260 nM
concentration at 8 h (40 mg/kg, NCI-H441 xenograft tumor, study NCI-H441#8, 40 mg/kg, 8h, read-out: RMC-6236 (nM) Tumor): 2820 nM
concentration at 4 h (50 mg/kg, HPAC #3, 50 mg/kg, individual animals, read-out: RMC-6236 (nM) Tumor): 4620 nM
concentration at 8 h (50 mg/kg, HPAC #3, 50 mg/kg, 8h, individual animals, read-out: RMC-6236 (nM) Tumor): 6090 nM
concentration at 24 h (50 mg/kg, HPAC #3, 50 mg/kg, 24h, individual animals, read-out: RMC-6236 (nM) Tumor): 3810 nM
concentration at 48 h (50 mg/kg, HPAC #3, 50 mg/kg, 48h, individual animals, read-out: RMC-6236 (nM) Tumor): 1440 nM
concentration at 8 h (50 mg/kg, KP-4, study KP-4 #3, 50 mg/kg, 8h, read-out: RMC-6236 (nM) Tumor): 5580 nM
concentration at 24 h (50 mg/kg, KP-4, study KP-4 #3, 50 mg/kg, 24h, read-out: RMC-6236 (nM) Tumor): 2070 nM
concentration at 48 h (50 mg/kg, KP-4, study KP-4 #3, 50 mg/kg, 48h, read-out: RMC-6236 (nM) Tumor): 489 nM
concentration at 1 h (50 mg/kg, Model Validation Dataset, 50mg/kg_study6, read-out: Tumor Concentration): 1310 nM
concentration at 8 h (50 mg/kg, Model Validation Dataset, 50mg/kg_study6, 8 h, read-out: Tumor Concentration): 4800 nM
